Values of other authors in patent publication US20250099408A1, “IMPROVED SURAMIN METHODS AND COMPOSITIONS” (priority 2022, published 2025).

Test system: HIV
Settings: suramin 1 g IV

Cc1ccc(C(=O)Nc2ccc(S(=O)(=O)O)c3cc(S(=O)(=O)O)cc(S(=O)(=O)O)c23)cc1NC(=O)c1cccc(NC(=O)Nc2cccc(C(=O)Nc3cc(C(=O)Nc4ccc(S(=O)(=O)O)c5cc(S(=O)(=O)O)cc(S(=O)(=O)O)c45)ccc3C)c2)c1 [suramin]
virus in the blood circulation (HIV patients): almost clearing the virus from the blood circulation
clinical improvement of the patients: did not give clinical improvements
